Test results: patent US3966701A, “Fibrinogen peptide derivatives” (The Dow Chemical Company, priority 1973, dated 1976)
Where a SMILES comes first, the peptide text is derived from it. The star is where a group is joined. Boc = CC(C)(C)OC(=O)*; OBn = c1ccc(CO*)cc1

Tests used:
thrombin [1] = experiment: in vitro thrombin time (TT): exogenous thrombin added to oxalated plasma, clotting time measured; type: biochemical; details: oxalated dog plasma, thrombin 1 unit/ml, control 15 sec
Method: Their anticoagulant activity was determined by measuring thrombin time (TT) utilizing an in vitro test wherein exogenous thrombin is added to oxalated plasma and clotting time is measured in the presence of the test compound.
^a Clotting mixture: 0.2 ml. oxalated dog plasma, 0.1 ml. barbital
buffer containing peptide and 0.1 ml. thrombin (1 unit/ml.)

thrombin [2] = experiment: in vitro plasma recalcification time (PRT): calcium ions added to oxalated plasma, clotting time measured; type: biochemical, dog
Method: The plasma recalcification time (PRT) was also used in an in vitro test for measuring thrombin inhibition wherein exogenous calcium ions were added to oxalated plasma (the system makes its thrombin in situ), and measuring clotting time in the presence of the compounds.
0.2 ml. oxalated dog plasma
0.1 ml. Barbital buffer saline containing test compound
0.1 ml. oxalated dog plasma
0.2 ml. Barbital buffer saline containing test compound

[3] = 0.25 mg/ml, clotting mixture (a), 0.2 ml oxalated dog plasma, control 66 sec
[4] = 0.5 mg/ml, clotting mixture (a), 0.2 ml oxalated dog plasma, control 66 sec
[5] = 1.0 mg/ml, clotting mixture (a), 0.2 ml oxalated dog plasma, control 66 sec
[6] = 1.5 mg/ml, clotting mixture (a), 0.2 ml oxalated dog plasma, control 66 sec

Molecule	Thrombin Times (sec) at Peptide Concentrations (mg/ml) (thrombin [1]; 0.125 mg/ml peptide) [s]	Thrombin Times (sec) at Peptide Concentrations (mg/ml) (thrombin [1]; 0.25 mg/ml peptide) [s]	Thrombin Times (sec) at Peptide Concentrations (mg/ml) (thrombin [1]; 0.5 mg/ml peptide) [s]	Thrombin Times (sec) at Peptide Concentrations (mg/ml) (thrombin [1]; 1.0 mg/ml peptide) [s]	Thrombin Times (sec) at Peptide Concentrations (mg/ml) (thrombin [1]; 2.0 mg/ml peptide) [s]	PRT (average) (thrombin [2]; [3]) [s]	PRT (average) (thrombin [2]; [4]) [s]	PRT (average) (thrombin [2]; [5]) [s]	PRT (average) (thrombin [2]; [6]) [s]	PRT (average) (thrombin [2]; 0.25 mg/ml, clotting mixture (a), 0.2 ml oxalated dog plasma, control 55 sec) [s]	PRT (average) (thrombin [2]; 0.5 mg/ml, clotting mixture (a), 0.2 ml oxalated dog plasma, control 55 sec) [s]	PRT (average) (thrombin [2]; 1.0 mg/ml, clotting mixture (a), 0.2 ml oxalated dog plasma, control 55 sec) [s]	PRT (average) (thrombin [2]; 1.5 mg/ml, clotting mixture (a), 0.2 ml oxalated dog plasma, control 55 sec) [s]	PRT (average) (thrombin [2]; 2 mg/ml, clotting mixture (a), 0.2 ml oxalated dog plasma, control 55 sec) [s]	PRT (average) (thrombin [2]; 2 mg/ml, clotting mixture (a), 0.2 ml oxalated dog plasma, control 66 sec) [s]	PRT (average) (thrombin [2]; 0.25 mg/ml, clotting mixture (b), 0.1 ml oxalated dog plasma, control 115 sec) [s]	PRT (average) (thrombin [2]; 0.5 mg/ml, clotting mixture (b), 0.1 ml oxalated dog plasma, control 115 sec) [s]	PRT (average) (thrombin [2]; 1.0 mg/ml, clotting mixture (b), 0.1 ml oxalated dog plasma, control 115 sec) [s]	PRT (average) (thrombin [2]; 2 mg/ml, clotting mixture (b), 0.1 ml oxalated dog plasma, control 115 sec) [s]
CC(C)(C)OC(=O)NCC(=O)N1CCC[C@H]1C(=O)N[C@@H](CCCNC(=N)N)C(=O)OCc1ccccc1.Cc1ccc(S(=O)(=O)O)cc1 [Example 3, N-t-Butyloxycarbonylglycyl-L-prolyl-L-arginine Benzyl Ester p-Toluenesulfonate] (Boc-Gly-Pro-Arg-OBn)	23	29	42	56	75	88	110	146	202	–	–	–	–	–	–	–	–	–	–
L-Prolyl-L-arginine Benzyl Ester p-Toluenesulfonate Trifluoroacetate [Example 2]	19	23	31	46	69	89	102	134	209	–	–	–	–	–	–	–	–	–	–
Glycyl-L-Prolyl-L-Arginine Benzyl Ester p-Toluenesulfonate Trifluoroacetate [Example 4]	19	26	44	68	135	–	–	–	–	77	100	198	246	296	–	–	–	–	–
CC(C)(C)OC(=O)N1CCC[C@H]1C(=O)N[C@@H](CCCNC(=N)N)C(=O)OCc1ccccc1.CO.Cc1ccc(S(=O)(=O)O)cc1 [Example 1, N-t-Butyloxycarbonyl-L-prolyl-L-arginine Benzyl Ester p-Toluenesulfonate Methanolate] (Boc-Pro-Arg-OBn)	40	44	73	91	159	128	160	207	229	–	–	–	–	–	250	–	–	–	–
N-Benzyloxycarbonyl-L-prolyl-L-arginine Benzyl Ester p-Toluenesulfonate Methanolate [Example 5]	–	–	–	–	–	–	–	–	–	–	–	–	–	–	–	240	270	345	435
